Reference: BigSolDB 2.1

Conditions: 298.15 K

| Structure (SMILES) | solubility (mole fraction) (in acetone) | solubility (mole fraction) (in acetonitrile) | solubility (mole fraction) (in chlorobenzene) | solubility (mole fraction) (in chloroform) | solubility (mole fraction) (in ethanol) | solubility (mole fraction) (in n-hexane) | solubility (mole fraction) (in tetrachloromethane) | solubility (mole fraction) (in cyclohexane) | solubility (mole fraction) (in ethyl acetate) | solubility (mole fraction) (in ethylene glycol) | solubility (mole fraction) (in isopropanol) | solubility (mole fraction) (in methanol) | solubility (mole fraction) (in n-heptane) | solubility (mole fraction) (in n-pentane) | solubility (mole fraction) (in n-propanol) | solubility (mole fraction) (in toluene) |
| --- | --- | --- | --- | --- | --- | --- | --- | --- | --- | --- | --- | --- | --- | --- | --- | --- |
| c1ccc2c(c1)c1ccccc1n2-c1ccc(-c2ccc(-n3c4ccccc4c4ccccc43)cc2)cc1 | 0.000153 | 7.54e-06 | 0.00491 | 0.0083 | 2.25e-06 | 9.41e-06 | 0.000997 |  |  |  |  |  |  |  |  |  |
| c1ccc2cc3ccccc3cc2c1 | 0.00318 | 0.000765 | 0.00946 | 0.00995 | 0.000428 | 0.0012 | 0.00481 |  |  |  |  |  |  |  |  |  |
| c1ccc(N(c2ccc(-c3ccc(N(c4ccccc4)c4cccc5ccccc45)cc3)cc2)c2cccc3ccccc23)cc1 | 2.11e-05 | 1.56e-06 | 0.00131 | 0.00268 | 5.59e-07 | 3.15e-06 | 0.000234 |  |  |  |  |  |  |  |  |  |
| c1ccc2cc3cc4ccccc4cc3cc2c1 | 3.27e-05 | 7.97e-06 | 0.00014 | 0.000132 | 6.91e-06 | 1.5e-05 | 4.61e-05 |  |  |  |  |  |  |  |  |  |
| COc1ccc2c(c1)c(CC(=O)O)c(C)n2C(=O)c1ccc(Cl)cc1 | 0.0234 | 0.00239 | 0.0023 | 0.00876 | 0.00441 | 4.84e-07 | 4.2e-05 | 1.87e-05 | 0.0111 | 0.000509 | 0.00465 | 0.00228 | 6.13e-07 | 3.31e-07 | 0.00433 | 0.000908 |
| O=C(O)c1cccnc1Nc1cccc(C(F)(F)F)c1 | 0.0288 | 0.00131 | 0.000297 | 0.00166 | 0.0138 | 5.35e-06 | 7.06e-05 |  |  |  |  |  |  |  |  |  |
| c1cc2cccc3c4cccc5cccc(c(c1)c23)c54 | 0.000301 | 4.68e-05 | 0.00177 | 0.00134 | 2.42e-05 | 5.53e-05 | 0.000444 |  |  |  |  |  |  |  |  |  |
